Values quoted from earlier work as cited in patent US20080311054A1, “Compositions and Methods to Counteract Oral Malodour” (GIVAUDAN SA, priority 2005, published 2008).

Tested on: microorganisms such as yeasts
Settings: WO 99/51093

## CCCCCCCCO [octanol]
  effect (killing microorganisms such as yeasts): no effect
